Experimental data reported in patent US20060069132A1, “Azolecarboxamide herbicides” (priority 2004, published 2006).
Where two headings read alike, the source gives them in different places.

Tests used:
[1] = system: rice; test: Test B flooded paddy test; type: in vivo, Oryza sativa; conditions: 1000 g ai/ha, visual rating, scale 0 to 100 (0 no effect, 100 complete control), 13 to 15 days
Procedure, shortened: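 Paddy species grown to the 2-leaf stage under flooding; blackgrass sprayed postemergence at 2–18 cm (1- to 4-leaf stage). Plants kept in a greenhouse for 13 to 15 days, then visually rated against controls on 0 (no effect) to 100 (complete control).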

[2] = system: pigweed; test: Test B pre-/postemergence herbicide test; type: in vivo, Amaranthus retroflexus
Procedure, shortened: (§1)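 Test chemicals in a non-phytotoxic solvent mixture with surfactant were applied preemergence to seeded species and postemergence to plants 2-18 cm tall (1- to 4-leaf stage); rice and barnyardgrass were also tested in a flooded paddy at the 2-leaf stage. Visual rating versus controls after 13-15 days in greenhouse, scale 0 (no effect) to 100 (complete control).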

[3] = system: large crabgrass; test: Test B pre-/postemergence herbicide test; type: in vivo, Digitaria sanguinalis
Procedure, shortened: as §1

[4] = system: blackgrass; test: Test B postemergence herbicide test; type: in vivo, Alopecurus myosuroides; conditions: scale 0 (no effect) to 100 (complete control); for Plant response rating, Blackgrass: 500 g ai/ha, visual rating after 13 to 15 days
Procedure, shortened: (§2)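 Each value is a visual 0–100 response rating taken against controls 13 to 15 days after treatment in the greenhouse. Plants received formulated chemical postemergence at the 1- to 4-leaf stage or, in flooded paddy, at the 2-leaf stage.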

[5] = system: lambsquarters; test: Test B pre-/postemergence herbicide test; type: in vivo, Chenopodium album; conditions: for pest or weed control at 125 g/ha / pest or weed control at 500 g/ha: Chenopodium album, 336 h
Procedure, shortened: as §1

[6] = system: ducksalad; test: Test B flooded paddy test; type: in vivo, Heteranthera limosa; conditions: 1000 g ai/ha, visual rating, scale 0 to 100 (0 no effect, 100 complete control), 13 to 15 days
Procedure, shortened: as §2

[7] = system: barnyardgrass; test: Test B pre-/postemergence herbicide test; type: in vivo, Echinochloa crus-galli
Procedure, shortened: (§3)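 Evaluation is visual, comparing treated with control plants on a scale where 0 means no effect and 100 means full control. Treatments were preemergence, or postemergence on seedlings 2–18 cm tall, and held 13–15 days in the greenhouse.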

[8] = system: giant foxtail; test: Test B pre-/postemergence herbicide test; type: in vivo, Setaria faberi; conditions: for pest or weed control at 125 g/ha / pest or weed control at 500 g/ha: Setaria faberi, 336 h
Procedure, shortened: as §1

[9] = system: velvetleaf; test: Test B pre-/postemergence herbicide test; type: in vivo, Abutilon theophrasti
Procedure, shortened: as §1

[10] = system: cocklebur; test: Test B pre-/postemergence herbicide test; type: in vivo, Xanthium strumarium
Procedure, shortened: as §3

[11] = system: small flower umbrella sedge; test: Test B flooded paddy test; type: in vivo, Cyperus difformis; conditions: 1000 g ai/ha, visual rating, scale 0 to 100 (0 no effect, 100 complete control), 13 to 15 days
Procedure, shortened: as §2

[12] = system: wheat; test: Test B postemergence herbicide test; type: in vivo, Triticum aestivum; design: key to Wheat plant response rating: 0 = no effect, 100 = complete control; conditions: scale 0 (no effect) to 100 (complete control); for Plant response rating, Wheat: Postemergence, 500 g ai/ha, visual rating after 13 to 15 days
Procedure, shortened: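 Read-out: visual comparison with controls, scored 0 to 100, where 100 means complete control and 0 no effect. Formulated chemicals were applied postemergence to plants 2–18 cm tall (1- to 4-leaf), or to flooded-paddy plants at the 2-leaf stage, then held 13 to 15 days under glass.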

[13] = system: Surinam grass; test: Test B pre-/postemergence herbicide test; type: in vivo, Urochloa decumbens
Procedure, shortened: as §1

[14] = system: barnyardgrass; test: Test B flooded paddy test; type: in vivo, Echinochloa crus-galli; conditions: 1000 g ai/ha, visual rating, scale 0 to 100 (0 no effect, 100 complete control), 13 to 15 days
Procedure, shortened: as §2

[15] = system: morningglory; test: Test B pre-/postemergence herbicide test; type: in vivo, Ipomoea coccinea; conditions: for pest or weed control at 125 g/ha / pest or weed control at 500 g/ha: Ipomoea, 336 h
Procedure, shortened: as §3

[16] = Postemergence, 500 g ai/ha, visual rating after 13 to 15 days, scale 0 (no effect) to 100 (complete control)
[17] = Preemergence, 500 g ai/ha, scale 0 to 100
[18] = postemergence, 125 g ai/ha, visual rating, scale 0 (no effect) to 100 (complete control)
[19] = preemergence, 125 g ai/ha, 0 to 100 scale, 0 is no effect, 100 is complete control
[20] = postemergence, 125 g ai/ha, visual rating

## CCn1nc(C(C)(C)C)cc1C(=O)Nc1cccc(C(=O)NCC(F)(F)F)c1 [Compound 43, 3-(1,1-dimethylethyl)-1-ethyl-N-[3-[[(2,2,2-trifluoroethyl)amino]carbonyl]-phenyl]-1H-pyrazole-5-carboxamide]
[1]; Oryza sativa, 336 h, read-out: Rice plant response rating
  plant injury at 1000 g/ha: 50%
[2]; Amaranthus retroflexus, post-emergence, 336 h, Postemergence, 500 g ai/ha, visual rating after 13 to 15 days, scale 0 (no effect) to 100 (complete control), read-out: Plant response rating, Pigweed
  pest or weed control at 500 g/ha: 100%
[2]; Amaranthus retroflexus, pre-emergence, 336 h, Preemergence, 500 g ai/ha, scale 0 to 100, read-out: Pigweed plant response rating
  pest or weed control at 500 g/ha: 100%
[2]; Amaranthus retroflexus, pre-emergence, 336 h, preemergence, 125 g ai/ha, 0 to 100 scale, 0 is no effect, 100 is complete control, read-out: Plant response rating, Pigweed
  pest or weed control at 125 g/ha: 100%
[3]; Digitaria sanguinalis, post-emergence, Postemergence, 125 g ai/ha, scale 0 (no effect) to 100 (complete control), read-out: Crabgrass, Large plant response rating
  pest or weed control at 125 g/ha: 90%
[3]; Digitaria sanguinalis, post-emergence, Postemergence, 500 g ai/ha, visual rating after 13 to 15 days, scale 0 (no effect) to 100 (complete control), read-out: Plant response rating, Crabgrass, Large
  pest or weed control at 500 g/ha: 90%
[3]; Digitaria sanguinalis, pre-emergence, Preemergence, 500 g ai/ha, scale 0 to 100, read-out: Crabgrass, Large plant response rating
  pest or weed control at 500 g/ha: 100%
[4]; Alopecurus myosuroides, post-emergence, 336 h, Postemergence, 125 g ai/ha, read-out: Blackgrass plant response rating
  pest or weed control at 125 g/ha: 20%
[4]; Postemergence
  Plant response rating, Blackgrass: 20
[5]; post-emergence, Postemergence, 125 g ai/ha, scale 0 (no effect) to 100 (complete control), read-out: Lambsquarters plant response rating
  pest or weed control at 125 g/ha: 90%
[5]; post-emergence, Postemergence, 500 g ai/ha, visual rating after 13 to 15 days, scale 0 (no effect) to 100 (complete control), read-out: Plant response rating, Lambsquarters
  pest or weed control at 500 g/ha: 90%
[5]; pre-emergence, Preemergence, 500 g ai/ha, scale 0 to 100, read-out: Lambsquarters plant response rating
  pest or weed control at 500 g/ha: 100%
[5]; pre-emergence, preemergence, 125 g ai/ha, 0 to 100 scale, 0 is no effect, 100 is complete control, read-out: Plant response rating, Lambsquarters
  pest or weed control at 125 g/ha: 90%
[6]; Heteranthera limosa, 336 h, read-out: Ducksalad plant response rating
  pest or weed control at 1000 g/ha: 70%
[7]; Echinochloa crus-galli, post-emergence, Postemergence, 125 g ai/ha, scale 0 (no effect) to 100 (complete control), read-out: Barnyardgrass plant response rating
  pest or weed control at 125 g/ha: 20%
[7]; Echinochloa crus-galli, post-emergence, Postemergence, 500 g ai/ha, visual rating after 13 to 15 days, scale 0 (no effect) to 100 (complete control), read-out: Plant response rating, Barnyardgrass
  pest or weed control at 500 g/ha: 70%
[7]; Echinochloa crus-galli, pre-emergence, Preemergence, 500 g ai/ha, scale 0 to 100, read-out: Barnyardgrass plant response rating
  pest or weed control at 500 g/ha: 100%
[8]; post-emergence, Postemergence, 125 g ai/ha, scale 0 (no effect) to 100 (complete control), read-out: Foxtail, Giant plant response rating
  pest or weed control at 125 g/ha: 30%
[8]; post-emergence, Postemergence, 500 g ai/ha, visual rating after 13 to 15 days, scale 0 (no effect) to 100 (complete control), read-out: Plant response rating, Foxtail, Giant
  pest or weed control at 500 g/ha: 50%
[8]; pre-emergence, Preemergence, 500 g ai/ha, scale 0 to 100, read-out: Foxtail, Giant plant response rating
  pest or weed control at 500 g/ha: 80%
[8]; pre-emergence, preemergence, 125 g ai/ha, 0 to 100 scale, 0 is no effect, 100 is complete control, read-out: Plant response rating, Foxtail, Giant
  pest or weed control at 125 g/ha: 10%
[9]; Abutilon theophrasti, post-emergence, 336 h, Postemergence, 500 g ai/ha, visual rating after 13 to 15 days, scale 0 (no effect) to 100 (complete control), read-out: Plant response rating, Velvetleaf
  pest or weed control at 500 g/ha: 90%
[9]; Abutilon theophrasti, pre-emergence, 336 h, Preemergence, 500 g ai/ha, scale 0 to 100, read-out: Velvetleaf plant response rating
  pest or weed control at 500 g/ha: 100%
[9]; Abutilon theophrasti, pre-emergence, 336 h, preemergence, 125 g ai/ha, 0 to 100 scale, 0 is no effect, 100 is complete control, read-out: Plant response rating, Velvetleaf
  pest or weed control at 125 g/ha: 30%
[10]; Xanthium strumarium, post-emergence, Postemergence, 125 g ai/ha, scale 0 (no effect) to 100 (complete control), read-out: Cocklebur plant response rating
  pest or weed control at 125 g/ha: 10%
[10]; Xanthium strumarium, post-emergence, Postemergence, 500 g ai/ha, visual rating after 13 to 15 days, scale 0 (no effect) to 100 (complete control), read-out: Plant response rating, Cocklebur
  pest or weed control at 500 g/ha: 90%
[10]; Xanthium strumarium, pre-emergence, Preemergence, 500 g ai/ha, scale 0 to 100, read-out: Cocklebur plant response rating
  pest or weed control at 500 g/ha: 10%
[11]; Cyperus difformis, 336 h, read-out: Sedge, Umbrella plant response rating
  pest or weed control at 1000 g/ha: 70%
[12]
  Plant response rating, Wheat: 30
[13]; Urochloa decumbens, post-emergence, Postemergence, 500 g ai/ha, visual rating after 13 to 15 days, scale 0 (no effect) to 100 (complete control), read-out: Plant response rating, Surinam Grass
  pest or weed control at 500 g/ha: 80%
[13]; Urochloa decumbens, pre-emergence, Preemergence, 500 g ai/ha, scale 0 to 100, read-out: Surinam Grass plant response rating
  pest or weed control at 500 g/ha: 50%
[13]; Urochloa decumbens, pre-emergence, preemergence, 125 g ai/ha, 0 to 100 scale, 0 is no effect, 100 is complete control, read-out: Plant response rating, Surinam Grass
  pest or weed control at 125 g/ha: 30%
[14]; Echinochloa crus-galli, 336 h, read-out: Barnyardgrass plant response rating
  pest or weed control at 1000 g/ha: 80%
[15]; post-emergence, Postemergence, 125 g ai/ha, scale 0 (no effect) to 100 (complete control), read-out: Morningglory plant response rating
  pest or weed control at 125 g/ha: 80%
[15]; post-emergence, Postemergence, 500 g ai/ha, visual rating after 13 to 15 days, scale 0 (no effect) to 100 (complete control), read-out: Plant response rating, Morningglory
  pest or weed control at 500 g/ha: 100%
[15]; pre-emergence, Preemergence, 500 g ai/ha, scale 0 to 100, read-out: Morningglory plant response rating
  pest or weed control at 500 g/ha: 10%
[15]; pre-emergence, preemergence, 125 g ai/ha, 0 to 100 scale, 0 is no effect, 100 is complete control, read-out: Plant response rating, Morningglory
  pest or weed control at 125 g/ha: 0%

## CCCn1nc(C(C)(C)C)cc1C(=O)Nc1cccc(C(=O)NCC)c1 [Compound 57]
[1]
  Rice plant response rating: 60
[2]; [16]
  Plant response rating, Pigweed: 80
[2]; [17]
  Pigweed plant response rating: 100
[2]; [18]
  Pigweed plant response rating: 70
[2]; [19]
  Plant response rating, Pigweed: 90
[3]; [16]
  Plant response rating, Crabgrass, Large: 20
[3]; [17]
  Crabgrass, Large plant response rating: 100
[3]; [18]
  Crabgrass, Large plant response rating: 10
[3]; [19]
  Plant response rating, Crabgrass, Large: 40
[4]; Postemergence
  Plant response rating, Blackgrass: 10
[4]; [20]
  Blackgrass plant response rating: 0
[5]; [16]
  Plant response rating, Lambsquarters: 90
[5]; [17]
  Lambsquarters plant response rating: 100
[5]; [18]
  Lambsquarters plant response rating: 70
[5]; [19]
  Plant response rating, Lambsquarters: 100
[6]
  Ducksalad plant response rating: 50
[7]; [16]
  Plant response rating, Barnyardgrass: 20
[7]; [17]
  Barnyardgrass plant response rating: 70
[7]; [18]
  Barnyardgrass plant response rating: 10
[7]; [19]
  Plant response rating, Barnyardgrass: 50
[8]; [16]
  Plant response rating, Foxtail, Giant: 30
[8]; [17]
  Foxtail, Giant plant response rating: 100
[8]; [18]
  Foxtail, Giant plant response rating: 20
[8]; [19]
  Plant response rating, Foxtail, Giant: 20
[9]; [16]
  Plant response rating, Velvetleaf: 30
[9]; [17]
  Velvetleaf plant response rating: 0
[9]; [18]
  Velvetleaf plant response rating: 20
[9]; [19]
  Plant response rating, Velvetleaf: 0
[10]; [16]
  Plant response rating, Cocklebur: 60
[10]; [17]
  Cocklebur plant response rating: 10
[10]; [18]
  Cocklebur plant response rating: 30
[10]; [19]
  Plant response rating, Cocklebur: 0
[11]
  Sedge, Umbrella plant response rating: 60
[12]
  Plant response rating, Wheat: 10
[12]; [20]
  Wheat plant response rating: 10
[13]; [16]
  Plant response rating, Surinam Grass: 20
[13]; [17]
  Surinam Grass plant response rating: 40
[13]; [18]
  Surinam Grass plant response rating: 10
[13]; [19]
  Plant response rating, Surinam Grass: 20
[14]
  Barnyardgrass plant response rating: 60
[15]; [16]
  Plant response rating, Morningglory: 10
[15]; [17]
  Morningglory plant response rating: 0
[15]; [18]
  Morningglory plant response rating: 10
[15]; [19]
  Plant response rating, Morningglory: 0
